Reference: patent EP0534511A1, “HIV protease inhibitors useful for the treatment of aids” (MERCK & CO. INC., priority 1991, dated 1993)

Biological target: T1, HIV protease (Human immunodeficiency virus type 1 group M subtype B, UniProt P04585)
T1 construct: the protease expressed in Eschericia coli; made in house; host or cells: Escherichia coli
Experiment: Assay for Inhibition of Microbial Expressed Viral Protease
Format: biochemical
Settings: protease expressed in Eschericia coli; peptide substrate Val-Ser-Gln-Asn-(betanapthyl)Ala-Pro-Ile-Val 0.5 mg/mL; 50 mM Na acetate, pH 5.5, 30°C, 1 hour; HPLC; read-out: IC₅₀
Procedure: Assay for Inhibition of Microbial Expressed Viral Protease
Inhibition studies of the reaction of the protease expressed in Eschericia coli with a peptide substrate [Val-Ser-Gln-Asn-(betanapthyl)Ala-Pro-Ile-Val, 0.5 mg/mL at the time the reaction is initiated] were in 50 mM Na acetate, pH 5.5, at 30°C for 1 hour. Various concentrations of inhibitor in 1.0 ul DMSO were added to 25 ul of the peptide solution in water. The reaction is initiated by the addition of 15 ul of 0.33 nM protease (0.11 ng) in a solution of 0.133 M Na acetate pH 5.5 and 0.26% bovine serum albumin. The reaction was quenched with 160 ul of 5% phosphoric acid. Products of the reaction were separated by HPLC (VYDAC wide pore 5 cm C-18 reverse phase, acetonitrile gradient, 0.1% phosphoric acid). The extent of inhibition of the reaction was determined from the peak heights of the products.

IC50 | SMILES
0.04 nM | O=C(N[C@@H](CC1CCCCC1)[C@@H](O)C[C@@H](Cc1ccccc1)C(=O)N[C@H]1c2ccccc2C[C@H]1O)O[C@H]1CCOC1 [C, N-[(2R)-hydroxy-1(S)-indanyl]-5(S)-(3(S)-tetrahydrofuranyloxycarbonylamino)-4(S)-hydroxy-6-cyclohexyl-2(R)-phenylmethyl hexamamide]
0.37 nM | CC(C)[C@H](C[C@H](O)[C@H](CC1CCCCC1)NC(=O)O[C@H]1CCOC1)C(=O)N[C@H]1c2ccccc2C[C@H]1O [A, N-[(2R)-hydroxy-1(S)-indanyl]-5(S)-(3(S)-tetrahydrofuranyloxycarbonylamino)-4(S)-hydroxy-6-cyclohexyl-2(R)-isopropyl hexanamide]
